# Several values for one entry are separate records, joined by “and”; a condition that tells them apart may be missing. Identical values can stand only once. Entries after “also recorded” stand apart in the source; their conditions may differ.
# Assays:
# [1] = test system: TGase II; test: TGase II assay of rat liver tissue after inhaled 13-cis RA (experiment B); type: in vivo; conditions: for TGase II assay, rat liver: 14 days
# Description: The experimental groups were as follows (Table 1): 1. Vehicle control: rats (3) inhaled vehicle for 240 minutes; 2.
# For liver tissue, a piece of approximately 100-400 mg was used. Tissue was diced in small pieces and homogenized in approximately 2 volumes of scraping buffer for 2-3 minutes at 4° C. Samples were centrifuged at 14,000 xg for 30 minutes at 4° C. The supernatant was removed and kept in ice until used.
# (§1) Enzyme assay mixtures were prepared by adding 80 μl of SUBSTRATE mixture (322.8 μl H2O, 120 μl 0.5M NaBorate, 60 μl 0.01M EDTA, 60 μl 0.1M CaCl2, 6 μl 1M DTT, 240 μl dimethyl casein, 30 μl Triton X-100, 1.21 μl [^3H]-Putrescine, 120 μl Putrescine) to 20 μl sample, 20 μl scraping buffer for blank control, 20 μl (18 μl scraping buffer+2 μl TGase II) for positive control. Samples were mixed in 15 ml tubes, the tubes were shaken before putting them into a 28° C. water bath for 30 minutes. Reactions were slowed down in an ice bath. 80 μl of the incubation mixture was adsorbed onto paper disks. These were immediately dropped into cold 10% TCA (0.1% Putrescine) and washed with agitation for 7 minutes, followed by 2 additional washes with 5% TCA (0.05% putrescine) for 5-7 minutes, and once more with cold (−20° C.) 95% ethanol for 5 minutes. Paper disks were dried and placed into 5 ml Aquasol, and counted in a Liquid Scintillation Counter. Protein concentration determination was conducted by the Bradford method.
# [2] = test system: second aerodigestive tumors; conditions: oral, 1-2 mg/kg/day, previously treated head-and-neck cancer patients; cited from earlier work
# [3] = test system: TGase II; test: TGase II assay of rat lung tissue after inhaled 13-cis RA (experiment B); type: in vivo
# Description: Male rats (n=23) (Sprague-Dawley from Charles River) were divided into six experimental groups and were given varying amounts of 13-cis RA through an inhalant apparatus once daily for different times each day for 14 days. The experimental groups were as follows (Table 1): 1. Vehicle control: rats (3) inhaled vehicle for 240 minutes; 2. Low dose 13-cis RA: rats (4) inhaled a solution containing 13-cis RA at a concentration of 62.2 μg/liter (inhaled dose 115.0 μg/kg body weight) in 5 minutes; 3. Low-Middle dose 13-cis RA: rats (4) inhaled a solution containing 13-cis RA at a concentration of 62.2 μg/liter (inhaled dose 334.4 μg/kg body weight) in 15 minutes; 4.Middle dose 13-cis RA: rats (4) inhaled a solution containing 13-cis RA at a concentration of 62.2 μg/liter (inhaled dose 1012.3 μg/kg body weight) in 45 minutes; 5. Middle-High dose 13-cis RA: rats (4) inhaled a solution containing 13-cis RA at a concentration of 62.2 μg/liter (inhaled dose 2843.4 μg/kg body weight) in 120 minutes; 6. High dose 13-cis RA:rats (4) inhaled a solution containing 13-cis RA at a concentration of 62.2 μg/liter (inhaled dose 5935.6 μg/kg body weight) in 240 minutes.
# as §1
# Cannon (Cannon et al., 1983).
structure (smiles),measurement,setting,value
"CC1=C(/C=C/C(C)=C/C=C/C(C)=C\C(=O)O)C(C)(C)CCC1 [13-cis RA, 13-cis-Retinoic Acid]","TGase II assay, rat liver",[1]; High dose,19719 DPM/μg protein
same,"TGase II assay, rat liver",[1]; High dose: 1872 μg/kg total deposited,0.271+/−0.015 picomoles/μg protein/30 min and 0.271 ± 0.015 picomoles/μg protein/30 min
same,"TGase II assay, rat liver","[1]; Low dose, vehicle 20426",22705 DPM/μg protein
same,"TGase II assay, rat liver","[1]; Low dose: 39 μg/kg total deposited, vehicle 0.260",0.289+/−0.007 picomoles/μg protein/30 min and 0.289 ± 0.007 picomoles/μg protein/30 min
same,"TGase II assay, rat liver",[1]; Low-Middle dose,21448 DPM/μg protein
same,"TGase II assay, rat liver",[1]; Low-Middle dose: 117 μg/kg total deposited,0.273+/−0.018 picomoles/μg protein/30 min and 0.273 ± 0.018 picomoles/μg protein/30 min
same,"TGase II assay, rat liver",[1]; Middle dose,24590 DPM/μg protein
same,"TGase II assay, rat liver",[1]; Middle dose: 351 μg/kg total deposited,0.313+/−0.025 picomoles/μg protein/30 min and 0.313 ± 0.025 picomoles/μg protein/30 min
same,"TGase II assay, rat liver",[1]; Middle-High dose,20348 DPM/μg protein
same,"TGase II assay, rat liver",[1]; Middle-High dose: 936 μg/kg total deposited,0.269+/−0.015 picomoles/μg protein/30 min and 0.269 ± 0.015 picomoles/μg protein/30 min
same,effect of inhaled 13-cis RA on liver TGase II activity,"[1]; rat, up to 5.93 mg/kg of inhaled dose",without significant effect; also recorded: fails to significantly alter; also recorded: no significant effect
same,protection against second aerodigestive tumors,[2],significantly protective
same,"TGase II assay, rat lung","[3]; High dose, 240 min daily, 14 days",8053 DPM/μg protein
same,"TGase II assay, rat lung","[3]; High dose: 1872 μg/kg total deposited, 240 min daily, 14 days",0.1025+/−0.004 picomoles/μg protein/30 min and 0.1025 ± 0.004 picomoles/μg protein/30 min
same,"TGase II assay, rat lung","[3]; Low dose, 5 min daily, 14 days, vehicle 3535",7503 DPM/μg protein
same,"TGase II assay, rat lung","[3]; Low dose: 39 μg/kg total deposited, 5 min daily, 14 days, vehicle 0.0450",0.0955+/−0.004 picomoles/μg protein/30 min and 0.0955 ± 0.004 picomoles/μg protein/30 min
same,"TGase II assay, rat lung","[3]; Low-Middle dose, 15 min daily, 14 days",9035 DPM/μg protein
same,"TGase II assay, rat lung","[3]; Low-Middle dose: 117 μg/kg total deposited, 15 min daily, 14 days",0.1150+/−0.006 picomoles/μg protein/30 min and 0.1150 ± 0.006 picomoles/μg protein/30 min
same,"TGase II assay, rat lung","[3]; Middle dose, 45 min daily, 14 days",10449 DPM/μg protein
same,"TGase II assay, rat lung","[3]; Middle dose: 351 μg/kg total deposited, 45 min daily, 14 days",0.1330+/−0.009 picomoles/μg protein/30 min and 0.1330 ± 0.009 picomoles/μg protein/30 min
same,"TGase II assay, rat lung","[3]; Middle-High dose, 120 min daily, 14 days",8014 DPM/μg protein
same,"TGase II assay, rat lung","[3]; Middle-High dose: 936 μg/kg total deposited, 120 min daily, 14 days",0.1020+/−0.005 picomoles/μg protein/30 min and 0.1020 ± 0.005 picomoles/μg protein/30 min
same,stimulation of lung TGase activity,"[3]; maximum, inhaled dose 1012.3 μg/kg (45 minutes of inhalation), 14 days",2.9 Fold
same,stimulation of lung TGase activity,[3]; with larger amounts of inhaled retinoid,1.2 fold

# — US20030216471A1, “Retinoid formulations for aerosolization and inhalation” (priority 2003, published 2003)
